Patent US20240409585A1, “MACROCYCLIC IMMUNOMODULATORS” (priority 2021, published 2024)
Numbered stars: 1 amine (or outer) side, 2 acyl side, 3 side chain; on linkers, the order of the positions; unused ones are H or OH. Bridge positions count the residues as written; N and C are the ends. Square brackets hold non-standard residues; d marks the D form. Peptide text beside a SMILES is read from it. * marks the point of attachment. ξ: configuration not given here. X18 = O=C(O)COCCc1ccc(-c2ccc(C[C@H](N[*:1])C(=O)[*:2])cc2)cc1; Phe(3-CF3) = N[C@@H](Cc1cccc(C(F)(F)F)c1)C(=O)O; Ala(morpholin-4-yl) = N[C@@H](CN1CCOCC1)C(=O)O; Phe(3-CONH2) = NC(=O)c1cccc(C[C@H](N)C(=O)O)c1; Phe(4-COOH) = N[C@@H](Cc1ccc(C(=O)O)cc1)C(=O)O; Bip = N[C@@H](Cc1ccc(-c2ccccc2)cc1)C(=O)O; Phe(3-Me) = Cc1cccc(C[C@H](N)C(=O)O)c1; Bta = N[C@@H](Cc1csc2ccccc12)C(=O)O; Val(3-OH) = CC(C)(O)[C@H](N)C(=O)O; 2Pal = N[C@@H](Cc1ccccn1)C(=O)O; 4Pal = N[C@@H](Cc1ccncc1)C(=O)O; 3Thi = N[C@@H](Cc1ccsc1)C(=O)O; Cha = N[C@@H](CC1CCCCC1)C(=O)O; Cit = NC(=O)NCCC[C@H](N)C(=O)O; Ile(3ξ) = CCC(C)[C@H](N)C(=O)O; Thr(3ξ) = CC(O)[C@H](N)C(=O)O; NEtAla = CCN[C@@H](C)C(=O)O; dDab = NCC[C@@H](N)C(=O)O; Carboxymethyl = O=C(O)C*; NMeA = CN[C@@H](C)C(=O)O; Orn = NCCC[C@H](N)C(=O)O; Dab = NCC[C@H](N)C(=O)O; Dap = NC[C@H](N)C(=O)O

Target: T1, PE-labeled human PD-L1-Ig binding to Jurkat cell line over-expressing human PD-1 (Jurkat-PD-1) (Homo sapiens, UniProt Q15116)
T1 construct: expressed in transfected cells; host or cells: Jurkat
Test: Jurkat-PD-1 Cell Binding High-Content Screening Assay (CBA): Method 1
Conditions: Jurkat-hPD-1 cells, PE-labeled PD-L1-Ig 20 nM final; read-out: Jurkat HPDL1 PD1 IC50 (uM) (Method 1)

T1 sequence (Q15116 25-288): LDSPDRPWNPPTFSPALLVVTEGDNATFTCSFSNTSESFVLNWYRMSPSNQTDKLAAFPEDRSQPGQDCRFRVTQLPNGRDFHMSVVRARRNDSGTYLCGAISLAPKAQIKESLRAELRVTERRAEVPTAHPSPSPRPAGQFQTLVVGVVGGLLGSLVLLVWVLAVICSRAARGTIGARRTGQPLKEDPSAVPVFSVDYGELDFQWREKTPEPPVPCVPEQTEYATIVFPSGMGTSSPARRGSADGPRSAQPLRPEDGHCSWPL

Row | IC50 [µM] | SMILES
1 | 0.04 | CC(C)C[C@@H]1NC(=O)[C@H](CCN)NC(=O)[C@@H](CC(C)C)NC(=O)[C@H](C)N(C)C(=O)[C@H](CCCNC(N)=O)NC(=O)[C@H](Cc2ccc(-c3ccccc3)cc2)NC(=O)[C@H](C(C)C)NC(=O)[C@H](Cc2c[nH]c3ccccc23)NC(=O)[C@H](CC(=O)O)NC(=O)[C@H](Cc2ccc(C(=O)O)cc2)NC(=O)[C@H](Cc2ccccn2)NC(=O)CSC[C@@H](C(=O)N[C@@H](C)C(N)=O)NC(=O)[C@H]([C@@H](C)O)NC(=O)[C@H](C(C)C)NC1=O [Compound 1330] ({CH2CO}-[2Pal][Phe(4-COOH)]DWV[Bip][Cit][NMeA][dL][Dab]LVTCA-NH2; thioether N-14)
2 | 0.04 | CCC(C)[C@@H]1NC(=O)[C@H](Cc2ccc(-c3ccccc3)cc2)NC(=O)[C@H](C(C)C)NC(=O)[C@H](Cc2c[nH]c3ccccc23)NC(=O)[C@H](CC(=O)O)NC(=O)[C@H](Cc2ccc(OCC(=O)O)cc2)NC(=O)[C@H](C(C)O)NC(=O)CSC[C@@H](C(N)=O)NC(=O)[C@H](C(C)O)NC(=O)[C@H](C(C)C)NC(=O)[C@H](CC2CCCCC2)NC(=O)[C@H](CCN)NC(=O)[C@@H](CC(C)C)NC(=O)[C@H](C)N(C)C1=O (stereo partly drawn) [Compound 2248] ({CH2CO}-[Thr(3ξ)]Y(Carboxymethyl)DWV[Bip][Ile(3ξ)][NMeA][dL][Dab][Cha]V[Thr(3ξ)]C-NH2; thioether N-14)
3 | 0.11 | CC(C)C[C@H]1NC(=O)[C@H](C)N(C)C(=O)[C@H](CCC(N)=O)NC(=O)[C@H](Cc2ccc(-c3ccccc3)cc2)NC(=O)[C@H](Cc2ccc(C(=O)O)cc2)NC(=O)[C@H](Cc2cccc(C(F)(F)F)c2)NC(=O)[C@H](CC(N)=O)NC(=O)[C@H](Cc2ccc(C(=O)O)cc2)NC(=O)[C@H](CN2CCOCC2)NC(=O)CSC[C@@H](C(=O)N[C@@H](CCN)C(N)=O)NC(=O)[C@H](CCCN)NC(=O)[C@H](C(C)C)NC(=O)[C@H](CC2CCCCC2)NC(=O)[C@H](CCN)NC1=O [Example 2279] ({CH2CO}-[Ala(morpholin-4-yl)][Phe(4-COOH)]N[Phe(3-CF3)][Phe(4-COOH)][Bip]Q[NMeA][dL][Dab][Cha]V[Orn]C[Dab]-NH2; thioether N-14)
4 | 0.01 | Cc1cccc(C[C@@H]2NC(=O)[C@H](CC(=O)O)NC(=O)[C@H](Cc3ccc(OCC(=O)O)cc3)NC(=O)[C@H](Cc3ccncc3)NC(=O)CSC[C@@H](C(=O)N[C@@H](CCN)C(N)=O)NC(=O)[C@H](CO)NC(=O)[C@H](C(C)C)NC(=O)[C@H](CC3CCCCC3)NC(=O)[C@H](CCN)NC(=O)[C@@H](CC(C)C)NC(=O)[C@H](C)N(C)C(=O)[C@H](Cc3ccc(OCC(=O)O)cc3)NC(=O)[C@H](Cc3ccc(-c4ccccc4)cc3)NC(=O)[C@H](Cc3ccc(OCC(=O)O)cc3)NC2=O)c1 [Compound 1860] ({CH2CO}-[4Pal]Y(Carboxymethyl)D[Phe(3-Me)]Y(Carboxymethyl)[Bip]Y(Carboxymethyl)[NMeA][dL][Dab][Cha]VSC[Dab]-NH2; thioether N-14)
5 | 0.24 | Cc1cccc(C[C@@H]2NC(=O)[C@H](CC(=O)O)NC(=O)[C@H](Cc3ccc(O)cc3)NC(=O)[C@H](CC(N)=O)NC(=O)CSC[C@@H](C(=O)N[C@H](C)C(N)=O)NC(=O)[C@H](CCC(=O)O)NC(=O)[C@H](C(C)(C)O)NC(=O)[C@H](CC3CCCCC3)NC(=O)[C@H](CCN)NC(=O)[C@@H](CC(C)C)NC(=O)[C@H](C)N(C)C(=O)[C@H](CCCNC(N)=O)NC(=O)[C@H](Cc3ccc(-c4ccccc4)cc3)NC(=O)[C@H](C(C)(C)O)NC2=O)c1 [Compound 1712] ({CH2CO}-NYD[Phe(3-Me)][Val(3-OH)][Bip][Cit][NMeA][dL][Dab][Cha][Val(3-OH)]EC[dA]-NH2; thioether N-14)
6 | 0.51 | CC(C)C[C@@H]1NC(=O)[C@H](CCCNC(=N)N)NC(=O)[C@@H](Cc2ccccc2)NC(=O)[C@H](C)N(C)C(=O)[C@H](CCCNC(=N)N)NC(=O)[C@H](Cc2ccc(-c3ccccc3)cc2)NC(=O)[C@H](C(C)C)NC(=O)[C@H](Cc2c[nH]c3ccccc23)NC(=O)[C@H](CC(=O)O)NC(=O)[C@H](Cc2ccc(O)cc2)NC(=O)[C@H](CC(N)=O)NC(=O)CSC[C@@H](C(=O)NCC(N)=O)NC(=O)[C@H](CO)NC(=O)[C@H](C(C)C)NC1=O [Compound 1032] ({CH2CO}-NYDWV[Bip]R[NMeA][dF]RLVSCG-NH2; thioether N-14)
7 | 0.12 | Cc1cccc(C[C@@H]2NC(=O)[C@H](CC(=O)O)NC(=O)[C@H](Cc3ccc(OCC(=O)O)cc3)NC(=O)[C@H](C(C)O)NC(=O)CSC[C@@H](C(=O)N[C@H](CCN)C(N)=O)NC(=O)[C@H](C(C)(C)O)NC(=O)[C@H](C(C)C)NC(=O)[C@H](CC3CCCCC3)NC(=O)[C@H](CCN)NC(=O)[C@@H](CC(C)C)NC(=O)[C@H](C)N(C)C(=O)[C@H](Cc3ccc(OCC(=O)O)cc3)NC(=O)[C@H](Cc3ccc(-c4ccccc4)cc3)NC(=O)[C@H](Cc3ccc(C(=O)O)cc3)NC2=O)c1 (stereo partly drawn) [Compound 2156] ({CH2CO}-[Thr(3ξ)]Y(Carboxymethyl)D[Phe(3-Me)][Phe(4-COOH)][Bip]Y(Carboxymethyl)[NMeA][dL][Dab][Cha]V[Val(3-OH)]C[dDab]-NH2; thioether N-14)
8 | 0.24 | CC(C)C[C@@H]1NC(=O)[C@H](CCN)NC(=O)[C@H](Cc2csc3ccccc23)NC(=O)[C@H](C)N(C)C(=O)[C@H](CCC(=O)O)NC(=O)[C@H](Cc2ccc(-c3ccccc3)cc2)NC(=O)[C@H](C(C)C)NC(=O)[C@H](Cc2c[nH]c3ccccc23)NC(=O)[C@H](CC(=O)O)NC(=O)[C@H](Cc2ccc(O)cc2)NC(=O)[C@H](Cc2ccccc2)NC(=O)CSC[C@@H](C(=O)N[C@@H](C)C(N)=O)NC(=O)[C@H]([C@@H](C)O)NC(=O)[C@H](C(C)C)NC1=O [Compound 1143] ({CH2CO}-FYDWV[Bip]E[NMeA][Bta][Dab]LVTCA-NH2; thioether N-14)
9 | 0.12 | CC(C)C[C@@H]1NC(=O)[C@H](CCN)NC(=O)[C@@H](CC(C)C)NC(=O)[C@H](C)N(C)C(=O)[C@H](CCCNC(N)=O)NC(=O)[C@H](Cc2ccc(-c3ccccc3)cc2)NC(=O)[C@H](C(C)C)NC(=O)[C@H](Cc2c[nH]c3ccccc23)NC(=O)[C@H](CC(=O)O)NC(=O)[C@H](Cc2ccc(C(=O)O)cc2)NC(=O)[C@H](CN)NC(=O)CSC[C@@H](C(=O)N[C@@H](C)C(N)=O)NC(=O)[C@H]([C@@H](C)O)NC(=O)[C@H](C(C)C)NC1=O [Compound 1404] ({CH2CO}-[Dap][Phe(4-COOH)]DWV[Bip][Cit][NMeA][dL][Dab]LVTCA-NH2; thioether N-14)
10 | 0.04 | Cc1cccc(C[C@@H]2NC(=O)[C@H](CC(=O)O)NC(=O)[C@H](Cc3ccc(OCC(=O)O)cc3)NC(=O)[C@H](CCN)NC(=O)CSC[C@@H](C(=O)N[C@@H](CO)C(N)=O)NC(=O)[C@H](CO)NC(=O)[C@H](C(C)(C)O)NC(=O)[C@H](CC3CCCCC3)NC(=O)[C@H](CCN)NC(=O)[C@@H](CC(C)C)NC(=O)[C@H](C)N(C)C(=O)[C@H](Cc3ccc(C(=O)O)cc3)NC(=O)[C@H](Cc3ccc(-c4ccccc4)cc3)NC(=O)[C@H](Cc3cccc(C(N)=O)c3)NC2=O)c1 [Compound 2178] ({CH2CO}-[Dab]Y(Carboxymethyl)D[Phe(3-Me)][Phe(3-CONH2)][Bip][Phe(4-COOH)][NMeA][dL][Dab][Cha][Val(3-OH)]SCS-NH2; thioether N-14)
11 | 0.01 | CC(=O)NCCCC[C@@H]1NC(=O)[C@H](C(C)C)NC(=O)[C@H](CC2CCCCC2)NC(=O)[C@H](CCN)NC(=O)[C@@H](CC(C)C)NC(=O)[C@H](C)N(C)C(=O)[C@H](CCC(N)=O)NC(=O)[C@H](Cc2ccc(-c3ccccc3)cc2)NC(=O)[C@H](C(C)C)NC(=O)[C@H](Cc2c[nH]c3ccccc23)NC(=O)[C@H](CC(=O)O)NC(=O)[C@H](Cc2ccc(OCC(=O)O)cc2)NC(=O)[C@H](Cc2ccsc2)NC(=O)CSC[C@@H](C(=O)N[C@@H](CCN)C(N)=O)NC1=O [Compound 2127] ({CH2CO}-[3Thi]Y(Carboxymethyl)DWV[Bip]Q[NMeA][dL][Dab][Cha]VK(Ac)C[Dab]-NH2; thioether N-14)
12 | 0.88 | CC(C)C[C@@H]1NC(=O)[C@H](CCN)NC(=O)[C@@H](CC(C)C)NC(=O)[C@H](C)N(C)C(=O)[C@H](CCCNC(=N)N)NC(=O)[C@H](Cc2ccc(-c3ccc(CCOCC(=O)O)cc3)cc2)NC(=O)[C@H](C(C)C)NC(=O)[C@H](Cc2c[nH]c3ccccc23)NC(=O)[C@H](CC(=O)O)NC(=O)[C@H](Cc2ccc(O)cc2)NC(=O)[C@H](CC(N)=O)NC(=O)CSC[C@@H](C(=O)N[C@@H](C)C(N)=O)NC(=O)[C@H]([C@@H](C)O)NC(=O)[C@H](C(C)C)NC1=O [Compound 1210] ({CH2CO}-NYDWV[X18]R[NMeA][dL][Dab]LVTCA-NH2; thioether N-14)
13 | 0.07 | CCN1C(=O)[C@H](CCCNC(=N)N)NC(=O)[C@H](Cc2ccc(-c3ccccc3)cc2)NC(=O)[C@H](C(C)C)NC(=O)[C@H](Cc2c[nH]c3ccccc23)NC(=O)[C@H](CC(=O)O)NC(=O)[C@H](Cc2ccc(O)cc2)NC(=O)[C@H](CC(N)=O)NC(=O)CSC[C@@H](C(=O)N[C@@H](C)C(N)=O)NC(=O)[C@H]([C@@H](C)O)NC(=O)[C@H](C(C)C)NC(=O)[C@H](CC(C)C)NC(=O)[C@H](CCN)NC(=O)[C@@H](CC(C)C)NC(=O)[C@@H]1C [Compound 1207] ({CH2CO}-NYDWV[Bip]R[NEtAla][dL][Dab]LVTCA-NH2; thioether N-14)
14 | 0.05 | CC(C)C[C@@H]1NC(=O)[C@H](CCN)NC(=O)[C@@H](CC(C)C)NC(=O)[C@H](C)N(C)C(=O)[C@H](CCCN)NC(=O)[C@H](Cc2ccc(-c3ccccc3)cc2)NC(=O)[C@H](C(C)C)NC(=O)[C@H](Cc2c[nH]c3ccccc23)NC(=O)[C@H](CC(=O)O)NC(=O)[C@H](Cc2ccc(C(=O)O)cc2)NC(=O)[C@H](CC(N)=O)NC(=O)CSC[C@@H](C(=O)N[C@@H](C)C(N)=O)NC(=O)[C@H]([C@@H](C)O)NC(=O)[C@H](C(C)C)NC1=O [Compound 1386] ({CH2CO}-N[Phe(4-COOH)]DWV[Bip][Orn][NMeA][dL][Dab]LVTCA-NH2; thioether N-14)
